The record followed here is patent US12030879B2, “Sulfonyl acetamides as NLRP3 inhibitors” (Inflazome Limited, priority 2018, dated 2024).

Structures are written as SMILES. pIC50: −log10 of the molar value. Counter-ions that a name gives are not always drawn.

Data set [1] can be described thus: PK protocol, intravenous administration in rats. Format: in vivo. Conditions: rat, plasma, male Sprague Dawley rats, 1 mg/kg; for Vd: read-out: Vdss. As for the experimental part: Pharmacokinetic parameters were determined in male Sprague Dawley rats (Vital River Laboratory Animal Technology Co Ltd, Beijing, China, 7-9 weeks old). Animals were group housed during the study and maintained under a 12 h light/dark cycle.
For intravenous administration, compounds were formulated as a solution in DMSO:PBS [10:90] in 2 mL/kg dosing volume and administered via tail vein.
Serial blood samples (about 200 μL) were taken from each animal at each of 8 time-points post dose (0.083, 0.25, 0.5, 1, 2, 4, 8 and 24 h). Samples were held on ice for no longer than 30 minutes before centrifugation (5,696 rpm (3,000 g) for 15 minutes) for plasma generation. Plasma was frozen on dry ice prior to bioanalysis. PK parameters were generated from LC-MS/MS data using Phoenix WinNonlin 6.3 software.

The next data set deals with T1, NLRP3 (Homo sapiens, UniProt Q96P20).
T1 construct: Seed THP-1 cells (25,000 cells/well) containing 1.0 μg/ml LPS in 40 μl of RPMI medium; host or cells: THP-1 cells
T1 sequence (Q96P20 whole entry): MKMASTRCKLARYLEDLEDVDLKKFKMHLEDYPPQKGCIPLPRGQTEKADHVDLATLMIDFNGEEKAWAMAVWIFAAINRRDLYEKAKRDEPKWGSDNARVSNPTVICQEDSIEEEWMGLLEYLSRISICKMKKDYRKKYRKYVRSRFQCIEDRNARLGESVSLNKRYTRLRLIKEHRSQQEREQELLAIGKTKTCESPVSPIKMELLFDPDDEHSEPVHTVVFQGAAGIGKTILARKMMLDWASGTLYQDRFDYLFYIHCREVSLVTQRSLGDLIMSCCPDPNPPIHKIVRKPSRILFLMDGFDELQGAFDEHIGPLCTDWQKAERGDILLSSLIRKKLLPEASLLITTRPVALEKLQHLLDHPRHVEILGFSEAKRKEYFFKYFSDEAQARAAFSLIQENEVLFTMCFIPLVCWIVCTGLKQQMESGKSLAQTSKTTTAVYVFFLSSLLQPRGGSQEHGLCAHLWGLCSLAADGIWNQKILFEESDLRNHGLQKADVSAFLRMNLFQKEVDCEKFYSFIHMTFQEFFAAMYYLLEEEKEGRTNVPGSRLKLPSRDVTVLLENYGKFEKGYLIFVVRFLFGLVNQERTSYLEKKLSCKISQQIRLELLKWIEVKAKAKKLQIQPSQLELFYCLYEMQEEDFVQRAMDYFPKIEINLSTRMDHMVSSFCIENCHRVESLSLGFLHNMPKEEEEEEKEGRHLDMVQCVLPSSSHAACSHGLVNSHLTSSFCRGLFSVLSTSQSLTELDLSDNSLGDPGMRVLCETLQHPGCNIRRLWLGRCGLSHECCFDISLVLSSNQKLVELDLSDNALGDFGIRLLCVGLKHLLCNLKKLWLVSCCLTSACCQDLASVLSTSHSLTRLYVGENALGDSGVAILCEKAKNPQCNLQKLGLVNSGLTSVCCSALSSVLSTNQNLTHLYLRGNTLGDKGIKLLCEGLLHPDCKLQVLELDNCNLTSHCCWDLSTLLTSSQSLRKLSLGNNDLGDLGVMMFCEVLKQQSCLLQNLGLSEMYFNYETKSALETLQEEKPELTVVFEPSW
The data set is described as follows: THP-1 cells pyroptosis assay. Format: cell-based. The note with it: LPS 1 μg/ml, compound 3 hrs, nigericin 5 μM 1 hr, resazurin readout. The method, boiled down:
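LPS-primed (1 μg/ml) THP-1 cells in serum-free RPMI were treated 3 h with compound (8-point half-log, top 10 μM; 0.1% DMSO), then with 5 μM nigericin for 1 h at 37°C. Viability was read by 100 μM resazurin (ex 560/em 590 nm) after 1–2 h. IC50 came from 4-parameter nonlinear regression.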
In general terms: The colour change of resazurin is a common sign of viable cells or microbes.

Broadly, the AUC is concentration integrated over time. The term clearance denotes the rate of elimination divided by the concentration. Broadly, the half-life is how long it takes for the measured level to halve. Low values mean fast loss, high ones slow loss. The term pIC50 denotes −log10 of the IC50, conventionally taken in molar units. A low value points to a high IC50. For `COc1cc(-c2ccc3c(c2CC(=O)NS(=O)(=O)c2ccc(C(C)(C)O)cc2C)CCC3)ccn1` [Example 85, N-((4-(2-Hydroxypropan-2-yl)-2-methylphenyl)sulfonyl)-2-(5-(2-methoxypyridin-4-yl)-2,3-dihydro-1H-inden-4-yl)acetamide], in data set [1], the AUC was found to be 926 ng·h/mL, the clearance came out at 29.1 mL/min/kg, the half-life was 19.8 h and the Vd amounted to 12.2 L/kg. The negative logarithm of the IC50 (pIC50) on NLRP3 was at least 6.30. Regarding `COc1cc(-c2cc(F)cc(C(C)C)c2CC(=O)NS(=O)(=O)c2ccc(C(C)C)cc2)ccn1` [Example 110, 2-(4-Fluoro-2-isopropyl-6-(2-methoxypyridin-4-yl)phenyl)-N-((4-isopropylphenyl)sulfonyl)acetamide], in data set [1], the AUC worked out at 1260 ng·h/mL, the clearance was 13.3 mL/min/kg, the half-life was 7.2 h and the Vd worked out at 6.72 L/kg. On NLRP3, this compound showed a pIC50 of at least 6.00.

`COc1cc(-c2cc(F)cc(C(C)C)c2CC(=O)NS(=O)(=O)c2cccc(CO)c2)ccn1` [Example 38, 2-(4-Fluoro-2-isopropyl-6-(2-methoxypyridin-4-yl)phenyl)-N-((3-(hydroxymethyl)phenyl)sulfonyl)acetamide, potassium salt] had a pIC50 at NLRP3 of at least 6.00. The same measure, in the same setting: next, `COc1cc(-c2cc(F)cc(C(C)C)c2CC(=O)NS(=O)(=O)c2cc(Br)cs2)ccn1` [Example 183]: at least 6.00. Same read-out and setting: next, `CC(C)n1ccc(S(=O)(=O)NC(=O)Cc2c(-c3ccnc(C#N)c3)ccc3c2CCC3)n1` [Example 21, 2-(5-(2-Cyanopyridin-4-yl)-2,3-dihydro-H-inden-4-yl)-N-((1-isopropyl-1H-pyrazol-3-yl)sulfonyl)acetamide]: at least 5.00.

In the case of `COc1cc(-c2cc(F)cc(C(C)C)c2CC(=O)NS(=O)(=O)C[C@]23CCC(CC2=O)C3(C)C)ccn1` [Example 75], the negative-log IC50 (pIC50) against NLRP3 was at least 5.00. As for `CN(C)C(=O)c1cc(S(=O)(=O)NC(=O)Cc2c(-c3ccnc(C#N)c3)ccc3c2CCC3)nn1C` [Example 65, 3-(N-(2-(5-(2-Cyanopyridin-4-yl)-2,3-dihydro-1H-inden-4-yl)acetyl)sulfamoyl)-N,N,1-trimethyl-1H-pyrazole-5-carboxamide], the pIC50 on NLRP3 is at least 5.30. On the same count and under the same terms, next, `COc1cc(-c2ccc3c(c2CC(=O)NS(=O)(=O)c2cc(C(=O)N(C)C)n(C)n2)CCC3)ccn1` [Example 64, 3-(N-(2-(5-(2-Methoxypyridin-4-yl)-2,3-dihydro-1H-inden-4-yl)acetyl)sulfamoyl)-N,N,1-trimethyl-1H-pyrazole-5-carboxamide]: at least 5.00. Same read-out and setting: with `CC(C)c1cc(F)cc(-c2cccnc2)c1CC(=O)NS(=O)(=O)c1cc(C(=O)N(C)C)n(C)n1` [Example 59, 3-(N-(2-(4-Fluoro-2-isopropyl-6-(pyridin-3-yl)phenyl)acetyl)sulfamoyl)-N,N,1-trimethyl-1H-pyrazole-5-carboxamide] the figure was at least 5.30; with `Cc1nc(C(C)C)c(CC(=O)NS(=O)(=O)c2cc(C(C)C)c(F)cc2F)n1-c1ccncc1` [Example 202], at least 5.30; with `COc1cc(-c2cc(F)cc(C(C)C)c2CC(=O)NS(=O)(=O)c2ccc(C(C)=O)cc2)ccn1` [Example 43, N-((4-Acetylphenyl)sulfonyl)-2-(4-fluoro-2-isopropyl-6-(2-methoxypyridin-4-yl)phenyl)acetamide], at least 5.30. In the case of `COc1cc(-c2cc(F)cc(C(C)C)c2CC(=O)NS(=O)(=O)c2cccc(CC#N)c2)ccn1` [Example 32, N-((3-(Cyanomethyl)phenyl)sulfonyl)-2-(4-fluoro-2-isopropyl-6-(2-methoxypyridin-4-yl)phenyl)acetamide], the pIC50 against NLRP3 was at least 6.00.

With `COc1cc(-c2cc(F)cc(C(C)C)c2CC(=O)NS(=O)(=O)c2ccc(N(C)C)cc2C)ccn1` [Example 14], on NLRP3, the pIC50 is at least 6.30. The same measure, in the same setting: next, `COc1cc(-c2cc(F)cc(C(C)C)c2CC(=O)NS(=O)(=O)c2cnc(N(C)C)cc2C)ccn1` [Example 162]: at least 5.30; `COc1cc(-c2cc(F)cc(C(C)C)c2CC(=O)NS(=O)(=O)c2cccc(Cl)c2)ccn1` [Example 5]: at least 6.00. Same read-out and setting: with `COc1cc(-c2cc(F)cc(C(C)C)c2CC(=O)NS(=O)(=O)c2ccc(Br)cc2C(F)(F)F)ccn1` [Example 140] the figure was at least 5.30.

On to `C=C(C)c1cc(S(=O)(=O)NC(=O)Cc2c(-c3ccnc(OC)c3)cc(F)cc2C(C)C)c(F)cc1F` [Example 165], for which, on NLRP3, the negative logarithm of the IC50 (pIC50) is at least 6.30. With `CC(C)c1cc(F)cc(-c2ccncc2)c1CC(=O)NS(=O)(=O)c1cc(CN(C)C)n(C)n1` [Example 73, N-((5-((Dimethylamino)methyl)-1-methyl-H-pyrazol-3-yl)sulfonyl)-2-(4-fluoro-2-isopropyl-6-(pyridin-4-yl)phenyl)acetamide], the negative logarithm of the IC50 (pIC50) at NLRP3 is at least 5.30.

`COc1cc(-c2cc(F)cc(C(C)C)c2CC(=O)NS(=O)(=O)c2ccn(C(C)C)n2)ccn1` [Example 23, 2-(4-Fluoro-2-isopropyl-6-(2-methoxypyridin-4-yl)phenyl)-N-((1-isopropyl-1H-pyrazol-3-yl)sulfonyl)acetamide, potassium salt] had a negative-log IC50 (pIC50) at NLRP3 of at least 5.30. As for `COc1cc(-c2cc(F)cc(C(C)C)c2CC(=O)NS(=O)(=O)c2ccnc(C(C)(C)O)c2)ccn1` [Example 181], on NLRP3, the pIC50 is at least 6.30. In turn, `COc1cc(-c2cc(F)cc(C(C)C)c2CC(=O)NS(=O)(=O)c2cnn(C)c2)ccn1` [Example 42, 2-(4-Fluoro-2-isopropyl-6-(2-methoxypyridin-4-yl)phenyl)-N-((1-methyl-1H-pyrazol-4-yl)sulfonyl)acetamide] gave a pIC50 against NLRP3 of at least 5.00. The same measure, in the same setting: next, `COc1cc(-c2cc(F)cc(C(C)C)c2CC(=O)NS(=O)(=O)c2ccc(Cl)c(C(F)(F)F)c2)ccn1` [Example 141]: at least 6.00. On the same count and under the same terms, next, `COc1cc(-c2cc(F)cc(C(C)C)c2CC(=O)NS(=O)(=O)c2cccc(Cl)c2C)ccn1` [Example 6]: at least 5.00. Same read-out and setting: with `CCCn1cc(S(=O)(=O)NC(=O)Cc2c(-c3ccnc(OC)c3)cc(F)cc2C(C)C)c(C)n1` [Example 207] the figure was at least 6.00; with `COc1cc(-c2cc(F)cc(C(C)C)c2CC(=O)NS(=O)(=O)c2ccc(C(C)(C)O)nc2)ccn1` [Example 171], at least 5.30.

For `COc1cc(-c2cc(F)cc(C(C)C)c2CC(=O)NS(=O)(=O)c2ccc(NC(C)=O)cc2)ccn1` [Example 95, N-((4-Acetamidophenyl)sulfonyl)-2-(4-fluoro-2-isopropyl-6-(2-methoxypyridin-4-yl)phenyl)acetamide], the negative logarithm of the IC50 (pIC50) at NLRP3 is at least 5.00.
